The results in this text go back to US20090215884A1, “METHOD FOR WOUND HEALING” (priority 2005, published 2009).

Data set [1] concerns dermal fibroblasts. As to the kind of experiment: MTT cell viability and proliferation, dermal fibroblasts. Format: cell-based, human. The source says: A normal adult skin biopsy (6 mm) was obtained (n=1), with informed consent, from an individual attending the Oral Surgery Clinic, School of Dentistry, Wales College of Medicine, Cardiff. Following the application of a local anaesthetic, the dermal biopsy was collected and adult dermal fibroblast cultures established by single cell suspension technique, following enzymic degradation of the specimen. This technique has previously been reliably used to establish viable primary cultures of both oral and dermal fibroblasts in vitro (Cook et al, 2000; Stephens et al, 2001; 2003). Dermal fibroblasts were cultured in Fibroblast-Serum Containing Medium, containing Dulbecco's Modified Eagle's Medium (DMEM), supplemented with L-glutamine (2 mM), antibiotics (100 U/ml penicillin G sodium, […] streptomycin sulphate and 0.25 μg/ml amphotericin B) and 10% fetal calf serum (all purchased from Invitrogen Ltd., Paisley, U.K.). Dermal fibroblast cultures were maintained at 37° C., in a 5% CO2/95% air atmosphere, with the culture medium being changed every 2-3 days. Dermal fibroblasts were used between passage 7-17, for all experiments.
Prior to use, the PEP005/DMSO stock solution was removed from 4° C. storage and warmed to room temperature. The required volumes of PEP005/DMSO were aliquoted into a poly-propylene vessel and the PEP005/DMSO diluted to the required concentration (typically 0.01 μg/ml, 0.1 μg/ml, 1 μg/ml, 10 μg/ml and […]) in Fibroblast-Serum Containing Medium (for dermal fibroblast cultures) or serum-free, EpiLife® Medium (for epidermal keratinocyte cultures), with fresh PEP005/culture medium solutions being prepared daily, at the various concentrations above, due to solution stability. Prior to discarding PEP005/culture medium solutions, at least two volumes of 0.1% sodium hydroxide (Sigma Chemical Co.), in 95% ethanol/5% methanol (both from Fisher Scientific, Leicestershire, U.K.), was added to each solution, to decontaminate.
The MTT [3-(4,5-dimethyl-2-thiazolyl)-2,5-diphenyltetrazolium bromide] dye-reduction assay was employed for the assessment of dermal fibroblast and epidermal keratinocyte cell viability and proliferation, according to Cook et al (2000). Following trypzinisation, dermal fibroblast or epidermal keratinocyte were seeded in 96-well microtitre plates (VWR International Ltd., Leicestershire, U.K.), at a cell density of 2.5×10^3 cell/well and 5×10^3 cell/well, respectively. Following cell seeding for 24 h and 48 h, respectively, the dermal fibroblast and epidermal keratinocyte culture medium were replaced with culture medium (100 μl/well), containing 0, 0.01 μg/ml, 0.1 μg/ml, 1 μg/ml, 10 μg/ml or 100 μg/ml PEP005 (six culture wells per PEP005 concentration). […]

In data set [2] the test system is dermal fibroblasts. As to the kind of experiment: Dermal fibroblast differentiation (α-smooth muscle actin expression). Format: cell-based, human. Particulars: absence of TGF-β1. As to the method: The effects of PEP005 on dermal fibroblast differentiation to myofibroblasts, was examined by the extent of α-smooth muscle actin expression by the differentiating dermal fibroblasts, following stimulation with TGF-β. Following trypsinization, the dermal fibroblasts were suspended in Fibroblast-Serum Containing Medium, containing 10% fetal calf serum, at a cell density of 2.5×10^4 cells/ml. Aliquots (250 μl/well) of the dermal fibroblast cell suspension were seeded into 8-well chamber slides (VWR International Ltd.) and maintained at 37° C., in a 5% CO2/95% air atmosphere, until approximately 30-40% confluent. […] Various controls (three chamber slide per control) were also established, including (i) Fibroblast-Serum Containing Medium alone, (ii) cells in Fibroblast-Serum Containing Medium (cytokeratin or vimentin 1° Ab control), (iii) cells in Fibroblast-Serum Containing Medium, containing 10 ng/ml TGF-β and 1% DMSO, and (iv) cells in Fibroblast-Serum Containing Medium, containing 1% DMSO.
The chamber slides were maintained at 37° C., in a 5% CO2/95% air atmosphere, for 3 days, by which time, the cells had reached approximately 75% confluence. Chamber slides were fixed in 1:1 ice cold, acetone:methanol (300 μl/well) for 20 min and blocked in 1% BSA in PBS, at 4° C., for 1 h. […]

For the compound `C/C=C(/C)C(=O)O[C@H]1C(C)=C[C@]23C(=O)[C@@H](C=C(CO)[C@@H](O)[C@]12O)[C@H]1[C@@H](C[C@H]3C)C1(C)C` [PEP005, ingenol-3-angelate], the “dermal fibroblast cell viability/proliferation (MTT)” value in the data set on dermal fibroblasts [1] (0.01 μg/ml PEP005, day 7) is given as “appeared to stimulate cell viability/proliferation”; in the data set with dermal fibroblasts [1] (0.1 μg/ml PEP005, day 7), “appeared to stimulate cell viability/proliferation”; in the data set with dermal fibroblasts [1] (10 μg/ml PEP005, days 1, 3 and 5), “stimulatory effect”; in the data set on dermal fibroblasts [1] (100 μg/ml PEP005, compared to untreated fibroblast controls), “cytotoxic effect”. In addition, the “α-smooth muscle actin expression” value in the data set with dermal fibroblasts [2] (1 μg/ml PEP005) and in the data set with dermal fibroblasts [2] (10 μg/ml PEP005) was “detectable α-smooth muscle actin microfilaments” in each case.
